Laboratory results reported in patent US20260347322A1, “BETA ADRENERGIC AGONIST AND METHODS OF USING THE SAME” (CuraSen Therapeutics, Inc., priority 2019, published 2026).

Legend:
Format in all cases: cell-based
[1] = system: Endogenous beta-adrenergic receptor, 1321N1 cells; experiment: cAMP homogeneous time-resolved fluorescence (HTRF) assay, endogenous receptor; conditions: 30 min, 37 °C
Experimental: (§1) CAMP homogeneous time-resolved fluorescence (HTRF): experimental methods. Compound efficacy is determined using the CAMP Gs dynamic HTRF assay (Cisbio, catalog #62AM4PEC) largely following the manufacturer's instructions, also detailed below.
Compound Preparation: Candidate beta-adrenergic compounds, dissolved to 10 mM in DMSO, are diluted in 1× stimulation buffer 1 (Cisbio Part #64Sβ1FDD) containing 1 mM 3-Isobutyl-1-methylxanthene (IBMX; Cayman Chemical Company, catalog #13347). Serial dilutions are made in a 96 well V-bottom polypropylene compound microplate (Corning, catalog #3363) in stimulation buffer containing 1 mM IBMX, to 2× of the final desired concentration. Standard serial dilution curves are 10-point, 5-fold dilutions starting from a highest concentration of 10 μM. Controls present on every assay plate are 0.1% DMSO (vehicle control), 1 μM isoproterenol (full beta-adrenergic agonist control) and 15 μM xamoterol (partial beta-adrenergic agonist control). 5 μL from the 2× compound plate is stamped into a white 384 round well small volume HiBase assay plate (Greiner Bio-One; catalog #784075) to provide 4 technical replicates per concentration, per compound. Assay plates are centrifuged at 500×g for 10 seconds. Compounds and IBMX are prepared at 2× final dose to compensate for addition of cells.
Cell Preparation: 1× stimulation buffer, washing PBS (Dulbecco's phosphate-buffered saline, —Mg—Ca; Caisson Labs, catalog #PBL01), assay PBS (Dulbecco's phosphate-buffered saline, +Mg, +Ca; Caisson Labs, catalog #PBL02) and Versene (0.02% EDTA disodium salt solution in PBS without calcium or magnesium; Caisson Labs, catalog #EDL01) are pre-warmed to 37 °C Cells expressing beta-adrenergic receptor were washed in washing PBS to remove growth medium and then released from the surface by incubating with Versene for 5-10 minutes at 37 °C. Cells are harvested using assay PBS, counted manually by hemocytometer or by an automated cell counter, pelleted by centrifugation (200×g, 5 minutes) and resuspended in 37 °C. 1× stimulation buffer to a final density of 1.5×10^6 cells/mL. […]
HTRF Reagent Addition, Reading and Data Analysis: After 30 minutes of cell stimulation with test compound, the assay plates are centrifuged at 500×g for 10 seconds, and incubation was stopped with the addition of 5 μL cAMP-D2 acceptor, diluted 1:21 in detection and lysis buffer 2 (Cisbio 62CL2FDF) was added to all cells. […] Plates are centrifuged again at 500×g for 10 seconds, and HTRF was measured using a Tecan Spark plate reader at 50 flashes per well. HTRF ratios (665 nm/620 nm×10,000) are determined and plotted in GraphPad Prism to generate a concentration-effect curve. […]

[2] = biological target: T1, B1-AR (β1 adrenergic receptor) (Homo sapiens, UniProt P08588); experiment: cAMP homogeneous time-resolved fluorescence (HTRF) assay, β1
T1 construct: expressed in transfected cells
Experimental: as §1
(§2) Standard serial dilution curves are 10-point, 5-fold dilutions starting from a highest concentration of 10 μM. […] Assay plates are centrifuged at 500×g for 10 seconds. Compounds and IBMX are prepared at 2× final dose to compensate for addition of cells. […]
(§3) Subsequently, 5 μL Anti-cAMP-Eu Donor, diluted 1:21 in detection and lysis buffer 2, was added to cells. […] Plates are centrifuged again at 500×g for 10 seconds, and HTRF was measured using a Tecan Spark plate reader at 50 flashes per well. […] Potency estimates (EC50 and pEC50) are derived from the four-parameter nonlinear regression of the concentration-effect curve and an estimate of relative efficacy is determined by comparing the magnitude of the test compound HTRF signal window (min-max dose) with the signal window of the full agonist control, isoproterenol.

[3] = biological target: T2, B2-AR (β2 adrenergic receptor) (Homo sapiens, UniProt P07550); experiment: cAMP homogeneous time-resolved fluorescence (HTRF) assay, β2
T2 construct: expressed in transfected cells
Experimental: as §1, §2, §3

T2 sequence (P07550 whole entry): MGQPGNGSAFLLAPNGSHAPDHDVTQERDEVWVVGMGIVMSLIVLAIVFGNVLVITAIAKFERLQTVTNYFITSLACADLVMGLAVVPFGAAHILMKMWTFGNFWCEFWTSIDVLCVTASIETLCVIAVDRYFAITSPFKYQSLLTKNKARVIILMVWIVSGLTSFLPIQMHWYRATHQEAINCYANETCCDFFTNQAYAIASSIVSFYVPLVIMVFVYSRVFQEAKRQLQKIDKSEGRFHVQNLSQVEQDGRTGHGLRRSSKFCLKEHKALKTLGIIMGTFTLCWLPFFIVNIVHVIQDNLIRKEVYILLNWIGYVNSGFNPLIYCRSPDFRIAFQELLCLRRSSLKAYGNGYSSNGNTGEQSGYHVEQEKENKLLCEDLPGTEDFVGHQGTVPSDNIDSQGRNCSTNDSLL
T1 sequence (P08588 whole entry): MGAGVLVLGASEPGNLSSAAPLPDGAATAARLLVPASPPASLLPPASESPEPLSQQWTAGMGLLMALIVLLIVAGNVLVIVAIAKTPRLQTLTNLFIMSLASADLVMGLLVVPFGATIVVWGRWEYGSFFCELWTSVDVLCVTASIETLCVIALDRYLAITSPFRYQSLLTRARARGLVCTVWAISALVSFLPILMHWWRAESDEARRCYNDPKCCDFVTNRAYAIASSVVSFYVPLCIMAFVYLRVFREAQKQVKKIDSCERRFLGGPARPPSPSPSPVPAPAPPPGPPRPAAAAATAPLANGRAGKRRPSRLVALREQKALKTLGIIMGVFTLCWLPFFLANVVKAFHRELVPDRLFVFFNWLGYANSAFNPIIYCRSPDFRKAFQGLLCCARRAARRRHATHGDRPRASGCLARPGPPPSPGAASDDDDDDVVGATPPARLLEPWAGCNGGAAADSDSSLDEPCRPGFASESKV

`CC(C)(C)NC[C@H](O)c1cnc(N)c(Cl)c1` [Compound 02-1] was tested, and the “Average pEC50 [Receptor subtype: Endogenous; Cell type: 1321N1]” value (shortened to “Average pEC50”) [1] was “C (C =< 7-6)”.

With `CC(C)(C)NC[C@@H](O)c1cccc(N)n1` [Compound 02-6] the “Average pEC50” value [1] was “C (C =< 7-6)”.

`CC(C)(C)NC[C@H](O)c1cccc(O)n1` [Compound 02-7] was tested, and the “Average pEC50” value [1] was “D (D < 6)”.

`CC(C)(C)NC[C@@H](O)c1cccc(O)n1` [Compound 02-8] was tested, and the “Average pEC50” value [1] was “D (D < 6)”.

`CC(C)(C)NC[C@H](O)c1cncc2[nH]ncc12` [Compound 04-153] was tested, and the EC50 [2] was > 1000 nM and the EC50 [3] was 10 to 100 nM.
